Results: US20250049800A1, “VCP/p97 INHIBITOR FOR THE TREATMENT OF CANCER” (CASI Pharmaceuticals, Inc., priority 2021, published 2025)

Legend:
[1] = system: HL-60 cell line; assay: Cell Titer-Glo viability, fixed agent + dose response agent combinations; type: cell-based, human; details: Homo sapiens, HL-60, HL-60; fixed agent Compound 1 - 210 nM; read-out: IC50
Experimental: (§1) The additional therapeutic agents for this example were azacitidine (Cayman Chemical Cat No. 11164), decitabine (Sigma Cat No. A3656) and venetoclax (InvivoChem Cat. No. V0001).
(§2) Cell Culture: Three human acute myeloid leukemia tumor cell lines were used in this study: HL60, MV4;11 and MOLM-13. HL60 and MV4;11 were grown in IMDM base media with 20% and 10% FBS, respectively. MOLM-13 was grown in RPMI 1640 base media with 20% FBS. All culture media contained 2 mM glutamine, 100 units/mL sodium penicillin G, […] gentamicin, and 100 µg/mL streptomycin sulfate. The tumor cells were cultured in tissue culture flasks in a humidified incubator at 37° C., in an atmosphere of 5% CO2 and 95% air. Assay: Tumor cells were seeded in duplicate in a volume of 100 µL/well of media into 96-well micro-culture plates at initial densities low enough to allow for several population doublings (typically three to five) during the indicated incubation period. After a 24 hour incubation, test agents were added to each well. After 72 hours of culture with test articles, cell viability was determined using the Cell Titer-Glo® (Promega G7571) assay. Briefly, Cell Titer-Glo® (Promega G7571) reagents were equilibrated at room temperature for 30 minutes; 100 μL per well was added at endpoint (72 hours). Plates were gently shaken for two minutes and then incubated at room temperature for ten minutes prior to reading luminescence on the BMG Clariostar Plus microplate reader.
(§3) An IC50 ratio for each combination was calculated from the ratio of the combination IC50 as compared to the applicable no fixed agent (vehicle) control.

[2] = system: MV4; 11 cell line; assay: as above; type: cell-based, human; details: Homo sapiens, MV4-11, MV4; 11; fixed agent Compound 1 - 185 nM; read-out: IC50
Experimental: as §1, §2, §3

[3] = system: MOML-13 cell line; assay: as above; type: cell-based, human; details: Homo sapiens, MOML-13; fixed agent Compound 1 - 75 nM; read-out: IC50
Experimental: as §1, §2, §3

[4] = system: SK-OV-3 (Ovary); assay: Cell Titer-Glo viability: single agent IC50 and Compound 1 + PARP inhibitor matrix (Bliss); type: cell-based; details: for # in matrix with Bliss >5: 6×6 matrix of PARP inhibitor with Compound 1
Experimental: (§4) The PARP inhibitors used for the study were talazoparib, olaparib and niraparib. […] was used as a reference control. […] For each drug agent on its own, IC50 values in each cell line were determined. Interactions of the combinations of Compound 1 and each PARP inhibitor was assessed as follows: […] Cisplatin and culture media were used as positive and negative control, respectively. The combination activities were assessed using CrownSyn software to determine synergy scores by Bliss Independence and Loewe additivity methods. […] Synergy scores calculated by both Bliss independence model and Loewe additivity model (see Greco, […]., Poch, G., Suhnel, J., Kundi, M., & Bodeker, W. (1992). Consensus on concepts and terminology for combined-action assessment: the […] agreement. […] Without being bound by theory, the Bliss independence model is often applied to asses synergy for non-interacting drugs that elicit their responses independently, e.g., by targeting separate pathways, whereas the Loewe additivity model may be more compatible where both drugs have similar modes of action on the same targets or pathways.

[5] = system: DoTc2 4510 (Uterus/Cervix); assay: as above; type: cell-based; details: for # in matrix with Bliss >5: 6×6 matrix of PARP inhibitor with Compound 1
Experimental: as §4

[6] = system: HCC1806 (Breast); assay: as above; type: cell-based; details: for # in matrix with Bliss >5: 6×6 matrix of PARP inhibitor with Compound 1; for IC50: Homo sapiens, 72 h, single agent, read-out: Absolute IC50
Experimental: as §4

[7] = system: DU4475 (Breast); assay: as above; type: cell-based; details: for # in matrix with Bliss >5: 6×6 matrix of PARP inhibitor with Compound 1; for IC50: Homo sapiens, DU-4475, 72 h, single agent, read-out: Absolute IC50
Experimental: as §4

[8] = system: IGR-OV1 (Ovary); assay: as above; type: cell-based; details: for # in matrix with Bliss >5: 6×6 matrix of PARP inhibitor with Compound 1
Experimental: as §4

[9] = system: HCC1937 (Breast); assay: as above; type: cell-based; details: for # in matrix with Bliss >5: 6×6 matrix of PARP inhibitor with Compound 1
Experimental: as §4

[10] = system: MX-1 (Breast); assay: as above; type: cell-based; details: for # in matrix with Bliss >5: 6×6 matrix of PARP inhibitor with Compound 1
Experimental: as §4

[11] = system: HCC1395 (Breast); assay: as above; type: cell-based; details: for # in matrix with Bliss >5: 6×6 matrix of PARP inhibitor with Compound 1; for IC50: Homo sapiens, 72 h, single agent, read-out: Absolute IC50
Experimental: as §4

[12] = system: OVCAR-8 (Ovary); assay: as above; type: cell-based; details: for # in matrix with Bliss >5: 6×6 matrix of PARP inhibitor with Compound 1; for IC50: Homo sapiens, 72 h, single agent, read-out: Absolute IC50
Experimental: as §4

[13] = system: Capan-1 (Pancreas); assay: as above; type: cell-based; details: for # in matrix with Bliss >5: 6×6 matrix of PARP inhibitor with Compound 1; for IC50: Homo sapiens, 72 h, single agent, read-out: Absolute IC50
Experimental: as §4

[14] = system: MOML-13 (Human Acute Myeloid Leukemia cell line); assay: Combination Index (Chou-Talalay) of Compound 1 with second therapeutic agents; type: cell-based; details: for effect of the combination with Compound 1: MOML-13 (BRCA2 mutant, FLT3 heterozygous); for Combination Index: agent in combination with Compound 1, CI scores across all 3 ratios averaged, MOML-13
Experimental: (§5) Each combination was tested in 3 cell lines: MOML-13 (Human Acute Myeloid Leukemia cell line; Addex Bio), MV-4-11 (Human B Myelomoncytic Leukemia cell line; ATCC), and OCI-AML-3 (Human Acute Myeloid Leukemia cell line).
(§6) Within this range, 20 dose levels were tested for each combination, with each response determined in duplicate. […] The actual drug concentrations in the ratios were determined from the IC50 values obtained for each individual drug.
(§7) Raw data was analyzed using Graph Pad Prism, four parameter logistic fits, and Chou-Talalay drug combination analyses. […] For data points with Fe<0, the fractional effect was set to 0.001. Data points with Fe>0.99 or <0.01 were omitted from the Chou-Talalay analysis because the Chou-Talalay analysis fits data to the Log of the fractional effect, with equal weight applied across the range of effect, such that the high and low end of the dose response, very small changes in effect within the range of experimental error erroneously skew the outcome of the model fit.
(§8) A Combination Index (CI) vs Fractional Effect plot showing the actual combination index plotted vs Fractional effect value was plotted for each combination dose. In this analysis, CI=1 represents additive activity, CI>1 represent less than additive activity (often referred to as antagonism) and CI<1=synergistic activity (better than additive).

[15] = system: OCI-AML-3 (Human Acute Myeloid Leukemia cell line); assay: as above; type: cell-based; details: for Combination Index: agent in combination with Compound 1, CI scores across all 3 ratios averaged, OCI-AML-3
Experimental: as §5, §6, §7, §8

[16] = system: MV-4-11 (Human B Myelomoncytic Leukemia cell line); assay: as above; type: cell-based; details: for Combination Index: agent in combination with Compound 1, CI scores across all 3 ratios averaged, MV-4-11
Experimental: as §5, §6, §7, §8

[17] = Homo sapiens, single agent, read-out: Absolute IC50

| IC50 [6] | IC50 [11] | IC50 [12] | SMILES | # in matrix with Bliss >5 [4] | # in matrix with Bliss >5 [5] | # in matrix with Bliss >5 [6] | # in matrix with Bliss >5 [7] | IC50 [7] | # in matrix with Bliss >5 [8] | # in matrix with Bliss >5 [9] | # in matrix with Bliss >5 [10] | # in matrix with Bliss >5 [11] | # in matrix with Bliss >5 [12] | # in matrix with Bliss >5 [13] | IC50 [13] | effect of the combination with Compound 1 [14] | Combination Index [14] | Combination Index [15] | Combination Index [16] | other results |
| --- | --- | --- | --- | --- | --- | --- | --- | --- | --- | --- | --- | --- | --- | --- | --- | --- | --- | --- | --- | --- |
| – | – | – | Nc1ncn([C@@H]2O[C@H](CO)[C@@H](O)[C@H]2O)c(=O)n1 [Azacitidine, azacitidine, reference compound] | – | – | – | – | – | – | – | – | – | – | – | – | – | – | – | – | IC50 [1]: 1.96 µM; IC50 [2]: 0.11 µM; IC50 [3]: 0.125 µM |
| > 5 µM | > 5 µM | > 5 µM | O=C(c1cc(Cc2n[nH]c(=O)c3ccccc23)ccc1F)N1CCN(C(=O)C2CC2)CC1 [Olaparib, olaparib] | 10/36 | 5/36 | 17/36 | 13/36 | 4.52 µM | 12/36 | 23/36 | 3/36 | 8/36 | 8/36 | 4/36 | > 5 µM | – | – | – | – | IC50 [5, 17]: > 5 µM; IC50 ([8]; Homo sapiens, IGROV-1, 72 h, single agent, read-out: Absolute IC50): > 5 µM; IC50 ([10]; single agent, read-out: Absolute IC50): > 5 µM |
| > 5 µM | > 5 µM | > 5 µM | Cn1ncnc1[C@H]1c2n[nH]c(=O)c3cc(F)cc(c23)N[C@@H]1c1ccc(F)cc1 [Talazoparib] | 13/36 | 5/36 | 3/36 | 15/36 | 0.03 µM | 7/36 | 8/36 | 0/36 | 0/36 | 6/36 | 4/36 | 2.64 µM | strong synergy | – | – | – | IC50 [4, 17]: > 5 µM; IC50 [9, 17]: > 5 µM |
| – | – | – | Nc1ccn([C@@H]2O[C@H](CO)[C@@H](O)[C@@H]2O)c(=O)n1 [cytarabine] | – | – | – | – | – | – | – | – | – | – | – | – | additive effects | – | – | – | effect of the combination with Compound 1 ([15]; OCI-AML-3 (FLT3 wildtype)): additive effects; effect of the combination with Compound 1 ([16]; MV-4-11 (FLT3 homozygous mutant)): additive effects |
| – | – | – | CN(C)CCCOc1ccc(-c2ccc3ncc4c(c3c2)n(C2CCOCC2)c(=O)n4C)cn1 [AZDO156] | – | – | – | – | – | – | – | – | – | – | – | – | – | 1.293 | 1.159 | 1.122 | – |
| – | – | – | COCC1(CO)C(=O)C2CCN1CC2 (stereo not drawn) [APR-246] | – | – | – | – | – | – | – | – | – | – | – | – | – | 1.228 | 1.279 | 1.285 | – |
